The term inhibition denotes the drop in the measured response relative to a control, in per cent. One may read the IC50 as the concentration that inhibits the measured activity by half. The low end stands for inhibition by little substance, the high end for a need for much substance.

Active and inactive are the calls of the source. The rule behind the calls is not given here.

In test [1] the target is T1, Autotaxin (Homo sapiens, UniProt Q13822). The experiment in a line: Inhibition of human ATX at 100 uM by Amplex Red assay relative to control.
Test [2] deals with T1, Autotaxin. The experiment in a line: Inhibition of human ATX by Amplex Red assay.
The target in test [3] is T1, Autotaxin. The experiment in a line: Inhibition of human ATX assessed as decrease in LPC hydrolysis by Amplex Red assay.
Test [4] has as its target T1, Autotaxin. The experiment in a line: Inhibition of human ATX assessed as decrease in LPC hydrolysis upto 2.5 uM by Amplex Red assay.

`Cc1nc(Nc2cccc(C3CCCN3C(=O)c3n[nH]c4c3CCCC4)n2)sc1C` (stereo not drawn) gave an inhibition in test [1] of 85%. In test [2], this compound yielded a 50% inhibitory concentration (IC50) of 2.53 µM. The inhibition result in test [3] and in test [4] was “Active” in each case.
As for `O=C(CSc1nnc(-c2ccco2)o1)N1c2ccccc2Sc2ccc(Cl)cc21`, the inhibition in test [1] came out at 87%. In addition, the IC50 in test [2] is 9.41 µM. Further, the inhibition entry in test [3] and in test [4] was “Active” in each case.

These data come from ChEMBL document CHEMBL5385934, “Identification of two novel chemical classes of Autotaxin (ATX) inhibitors using Enalos Asclepios KNIME nodes” (Bioorg Med Chem Lett, 2024).
